According to PubChem BioAssay AID602287 (National Center for Advancing Translational Sciences (NCATS), 2012):
Values after ≈ are worked out from the molar mass of the structure shown. Results filed as inconclusive are left out.

system: PBS pH 7.4 solubility, LC-UV/MS, 1 h shake; experiment: qHTS Assay for Agonists of the Relaxin Receptor RXFP1: PBS Solubility; settings: stronger effect = higher value
Text: The relaxin hormone is involved in the variety of biological functions in normal tissues and diseases. The role of relaxin is well-established in female reproduction and parturition, mammary gland and endometrial development, maintenance of myometrial quiescence during pregnancy. Relaxin signaling through its G protein-coupled receptor (GPCR) RXFP1 results in ECM remodeling through regulation of collagen deposition, cell invasiveness, proliferation and overall tissue homeostasis. […] Recombinant human relaxin (rhRlx) is currently being tested in clinical trials as a protective agent in congestive heart failure, in treating severe preeclampsia, and as an anti-fibrotic agent in systemic sclerosis. The probe and analogs were tested to assess their PBS solubility in this assay. NIH Chemical Genomics Center [NCGC] NIH Molecular Libraries Probe Production Centers Network [MLPCN] MLPCN Grant: R03 MH085705 Assay Submitter (PI): Alexander Agoulnik
1. 8ul of reference and test compound stock solution were added to 392ul 100mM phosphate buffer (pH 7.4) 2. Sample tubes were shaken for 1 hr (1000 rpm) at room temperature 3. Samples were centrifuged (10 min at 12000 rpm) to precipitate un-dissolved particles 4. Supernatants were transferred to new tubes 5. Concentration of the supernatant was determined by LC-UV or LC-MS/MS

Compound | solubility
CCOc1ccccc1C(=O)Nc1ccccc1C(=O)Nc1cccc(C(F)(F)F)c1 | 1.7 µM (≈ 0.728 µg/mL)
COc1ccccc1C(=O)Nc1ccccc1C(=O)Nc1cccc(SC(F)(F)F)c1 | 2.9 µM (≈ 1.29 µg/mL)
CC(C)Oc1ccccc1C(=O)Nc1ccccc1C(=O)Nc1cccc(S(=O)(=O)C(F)(F)F)c1 | 7 µM (≈ 3.55 µg/mL)

The next lines start with the values.

solubility | Compound
1.1 µM (≈ 0.542 µg/mL) | CCOc1ccccc1C(=O)Nc1ccccc1C(=O)Nc1cccc(S(=O)(=O)C(F)(F)F)c1
5.3 µM (≈ 2.76 µg/mL) | CCCCOc1ccccc1C(=O)Nc1ccccc1C(=O)Nc1cccc(S(=O)(=O)C(F)(F)F)c1
